Where a name gives a salt, the structure may show the parent alone. Read-outs that look alike come from different tables or passages of the source.
Legend:
[1] = target: BRD4-BD1 (Homo sapiens (Human), UniProt O60885); test: BRD4 AlphaScreen Assay (Example A2), BRD4-BD1; format: binding; conditions: read-out: BRD4 BD-1 enzyme IC50
Method in brief: (§1)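 Displacement of 50 nM biotinylated tetra-acetylated histone H4 peptide from BRD4 BD1 or BD2 (<1 nM) in Tris-HCl pH 7.5 buffer with DTT. Inhibitors serially diluted in DMSO, added first, then incubated 75 min in the dark at room temperature before AlphaScreen read. IC50 fitted from percent control activity versus log concentration.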

[2] = target: BRD4-BD2 (Homo sapiens (Human), UniProt O60885); test: BRD4 AlphaScreen Assay (Example A2), BRD4-BD2; format: binding; conditions: read-out: BRD4 BD-2 enzyme IC50
Method in brief: as §1

[3] = Assay A2, AlphaScreen, BRD4-BD1
[4] = Assay A2, AlphaScreen, BRD4-BD2

Compound | IC50 [1, 3] [nM] | IC50 [2, 4] [nM] | IC50 [1] [nM] | IC50 [2] [nM]
CC(=O)N1CC=C(c2nc3ccc(-c4c(C)noc4C)c4c3n2[C@@H](c2ccccn2)CO4)CC1 [Example 110, (4S)-2-(1-acetyl-1,2,3,6-tetrahydropyridin-4-yl)-7-(3,5-dimethylisoxazol-4-yl)-4-pyridin-2-yl-4,5-dihydroimidazo[1,5,4-de][1,4]benzoxazine] | < 100 | < 100 |  | 
Cc1noc(C)c1-c1ccc2[nH]c(=O)n3c2c1OCC3c1cccnc1C(N)=O (centres unmarked) [Example 127, 3-[7-(3,5-Dimethylisoxazol-4-yl)-2-oxo-1,2,4,5-tetrahydroimidazo[1,5,4-de][1,4]benzoxazin-4-yl]pyridine-2-carboxamide trifluoroacetate] |  |  | < 100 | < 100
Cc1noc(C)c1-c1cc(C2=CCN(C(=O)OC(C)(C)C)CC2)c2[nH]c(=O)n3c2c1OC[C@@H]3c1ccccn1 [Example 83, tert-butyl 4-[(4S)-7-(3,5-dimethylisoxazol-4-yl)-2-oxo-4-pyridin-2-yl-1,2,4,5-tetrahydroimidazo[1,5,4-de][1,4]benzoxazin-9-yl]-3,6-dihydropyridine-1(2H)-carboxylate 2,2,2-trifluoroacetate] | < 100 | < 100 |  | 
Cc1noc(C)c1-c1cc(-c2cn[nH]c2C)c2[nH]c(=O)n3c2c1OCC3c1ccccn1 (centres unmarked) [Example 257, 7-(3,5-dimethylisoxazol-4-yl)-9-(3-methyl-1H-pyrazol-4-yl)-4-pyridin-2-yl-4,5-dihydroimidazo[1,5,4-de][1,4]benzoxazin-2(1H)-one] | 100 to 1000 | < 100 |  | 
Cc1noc(C)c1-c1cc(-c2ccc(O)nc2)c2[nH]c(=O)n3c2c1OC[C@@H]3c1ccccn1 [Example 259, (4S)-7-(3,5-dimethylisoxazol-4-yl)-9-(6-hydroxypyridin-3-yl)-4-pyridin-2-yl-4,5-dihydroimidazo[1,5,4-de][1,4]benzoxazin-2(1H)-one] | 100 to 1000 | < 100 |  | 
Cc1noc(C)c1-c1ccc2nc(N3CCCN(S(C)(=O)=O)CC3)n3c2c1OC[C@@H]3c1ccccn1 [Example 149, (4S)-7-(3,5-Dimethylisoxazol-4-yl)-2-[4-(methylsulfonyl)-1,4-diazepan-1-yl]-4-pyridin-2-yl-4,5-dihydroimidazo[1,5,4-de][1,4]benzoxazine] | < 100 | < 100 |  | 
Cc1noc(C)c1-c1ccc2ncn3c2c1OC[C@@H]3c1ccccn1 [Example 92, (4S)-7-(3,5-Dimethylisoxazol-4-yl)-4-pyridin-2-yl-4,5-dihydroimidazo[1,5,4-de][1,4]benzoxazine] | < 100 | < 100 |  | 
Cc1noc(C)c1-c1cc(-c2ccc(C(=O)N(C)C)nc2)c2[nH]c(=O)n3c2c1OC[C@@H]3c1ccccn1 [Example 82, 5-[(4S)-7-(3,5-dimethylisoxazol-4-yl)-2-oxo-4-pyridin-2-yl-1,2,4,5-tetrahydroimidazo[1,5,4-de][1,4]benzoxazin-9-yl]-N,N-dimethylpyridine-2-carboxamide 2,2,2-bis(trifluoroacetate)] | 100 to 1000 | < 100 |  | 
Cc1noc(C)c1-c1cc(-c2cccnc2)c2[nH]c(=O)n3c2c1OCC3c1ccccc1 (centres unmarked) [Example 52, 7-(3,5-Dimethylisoxazol-4-yl)-4-phenyl-9-pyridin-3-yl-4,5-dihydroimidazo[1,5,4-de][1,4]benzoxazin-2(1H)-one] | < 100 | < 100 |  | 
Cc1noc(C)c1-c1ccc2[nH]c(=O)n3c2c1CCC3c1ccccn1 (centres unmarked) [Example 123, 7-(3,5-Dimethylisoxazol-4-yl)-4-pyridin-2-yl-5,6-dihydro-4H-imidazo[4,5,1-ij]quinolin-2(1H)-one trifluoroacetate] | 100 to 1000 | < 100 |  | 
Cc1noc(C)c1-c1cc(F)c2[nH]c(=O)n3c2c1OCC3c1ccccn1 (centres unmarked) [Example 265A, 7-(3,5-dimethylisoxazol-4-yl)-9-fluoro-4-pyridin-2-yl-4,5-dihydroimidazo[1,5,4-de][1,4]benzoxazin-2(1H)-one] | 1000 to 10000 | 1000 to 10000 |  | 
Cc1noc(C)c1-c1ccc2nc(C(=O)N3CCOCC3)n3c2c1OC[C@@H]3c1ccccn1 [Example 94, (4S)-7-(3,5-Dimethylisoxazol-4-yl)-2-(morpholin-4-ylcarbonyl)-4-pyridin-2-yl-4,5-dihydroimidazo[1,5,4-de][1,4]benzoxazine] | < 100 | < 100 |  | 

Further lines, with some results ahead:

IC50 [1, 3] [nM] | IC50 [2, 4] [nM] | Compound | IC50 [1] [nM] | IC50 [2] [nM]
< 100 | < 100 | Cc1noc(C)c1-c1cc(C#N)c2[nH]c(=O)n3c2c1OCC3c1ccccn1 (centres unmarked) [Example 269A, 7-(3,5-dimethylisoxazol-4-yl)-2-oxo-4-pyridin-2-yl-1,2,4,5-tetrahydroimidazo[1,5,4-de][1,4]benzoxazine-9-carbonitrile] |  | 
< 100 | < 100 | Cc1noc(C)c1-c1ccc2[nH]c(=O)n3c2c1OC(CO)C3c1ccccn1 (single isomer, unassigned) [Example 62B, 7-(3,5-Dimethylisoxazol-4-yl)-5-(hydroxymethyl)-4-pyridin-2-yl-4,5-dihydroimidazo[1,5,4-de][1,4]benzoxazin-2(1H)-one] |  | 
< 100 | < 100 | Cc1noc(C)c1-c1ccc2[nH]c(=O)n3c2c1OCC3c1cccc[n+]1[O-] (centres unmarked) [Example 16, 7-(3,5-Dimethylisoxazol-4-yl)-4-(1-oxidopyridin-2-yl)-4,5-dihydroimidazo[1,5,4-de][1,4]benzoxazin-2(1H)-one] |  | 
< 100 | < 100 | Cc1noc(C)c1-c1cc(Br)c2[nH]c(=O)n3c2c1OCC3c1ccccn1 (single isomer, unassigned) [Example 267B, 9-bromo-7-(3,5-dimethylisoxazol-4-yl)-4-pyridin-2-yl-4,5-dihydroimidazo[1,5,4-de][1,4]benzoxazin-2(1H)-one] |  | 
< 100 | < 100 | Cc1noc(C)c1-c1cc(F)c2[nH]c(=O)n3c2c1OCC3c1ccccn1 (centres unmarked) [Example 265B, 7-(3,5-dimethylisoxazol-4-yl)-9-fluoro-4-pyridin-2-yl-4,5-dihydroimidazo[1,5,4-de][1,4]benzoxazin-2(1H)-one] |  | 
1000 to 10000 | 100 to 1000 | Cc1noc(CO)c1-c1ccc2[nH]c(=O)n3c2c1OCC3c1ccccn1 (racemic) [Example 124, 7-[5-(Hydroxymethyl)-3-methylisoxazol-4-yl]-4-pyridin-2-yl-4,5-dihydroimidazo[1,5,4-de][1,4]benzoxazin-2(1H)-one] |  | 
< 100 | < 100 | Cc1noc(C)c1-c1cc(CNS(C)(=O)=O)c2[nH]c(=O)n3c2c1OC[C@@H]3c1ccccn1 [Example 141, N-{[(4S)-7-(3,5-Dimethylisoxazol-4-yl)-2-oxo-4-pyridin-2-yl-1,2,4,5-tetrahydroimidazo[1,5,4-de][1,4]benzoxazin-9-yl]methyl}methanesulfonamide] |  | 
< 100 | < 100 | COC(=O)c1ncccc1C1COc2c(-c3c(C)noc3C)ccc3[nH]c(=O)n1c23 (racemic) [Example 132, Methyl 3-[7-(3,5-dimethylisoxazol-4-yl)-2-oxo-1,2,4,5-tetrahydroimidazo[1,5,4-de][1,4]benzoxazin-4-yl]pyridine-2-carboxylate] |  | 
1000 to 10000 | 100 to 1000 | Cc1noc(C)c1-c1cc(Cl)c2[nH]c(=O)n3c2c1OCC3c1ccccn1 (single isomer, unassigned) [Example 266B, 9-chloro-7-(3,5-dimethylisoxazol-4-yl)-4-pyridin-2-yl-4,5-dihydroimidazo[1,5,4-de][1,4]benzoxazin-2(1H)-one] |  | 
100 to 1000 | < 100 | Cc1noc(C)c1-c1ccc2[nH]c(=O)n3c2c1OC(C(=O)NCCO)C3c1ccccc1 (single isomer, unassigned) [Example 48A, 7-(3,5-Dimethylisoxazol-4-yl)-N-(2-hydroxyethyl)-2-oxo-4-phenyl-1,2,4,5-tetrahydroimidazo[1,5,4-de][1,4]benzoxazine-5-carboxamide] |  | 
1000 to 10000 | < 100 | Cc1noc(C)c1-c1cc(CN)c2[nH]c(=O)n3c2c1OC[C@@H]3c1ccccn1 [Example 137, (4S)-9-(Aminomethyl)-7-(3,5-dimethylisoxazol-4-yl)-4-pyridin-2-yl-4,5-dihydroimidazo[1,5,4-de][1,4]benzoxazin-2(1H)-one bis(trifluoroacetate)] |  | 
< 100 | < 100 | Cc1noc(C)c1-c1cc(C)c2[nH]c(=O)n3c2c1OCC3c1ccccc1 (centres unmarked) [Example 46, 7-(3,5-Dimethylisoxazol-4-yl)-9-methyl-4-phenyl-4,5-dihydroimidazo[1,5,4-de][1,4]benzoxazin-2(1H)-one] |  | 
100 to 1000 | < 100 | COc1ccc(CNCc2cc(-c3c(C)noc3C)c3c4c2[nH]c(=O)n4C(c2ccccn2)CO3)cc1 (centres unmarked) [Example 263, 7-(3,5-dimethylisoxazol-4-yl)-9-{[(4-methoxybenzyl)amino]methyl}-4-pyridin-2-yl-4,5-dihydroimidazo[1,5,4-de][1,4]benzoxazin-2(1H)-one] |  | 
< 100 | < 100 | CC(=O)N1CCC(c2nc3ccc(-c4c(C)noc4C)c4c3n2[C@@H](c2ccccn2)CO4)C1 (single isomer, unassigned; diastereomer 2) [Example 113B] |  | 
1000 to 10000 | 1000 to 10000 | Cc1noc(C)c1-c1ccc2nc(N3CC(O)C3)n3c2c1OCC3c1cccnc1 (single isomer, unassigned) [Example 160B, 1-[7-(3,5-Dimethylisoxazol-4-yl)-4-pyridin-3-yl-4,5-dihydroimidazo[1,5,4-de][1,4]benzoxazin-2-yl]azetidin-3-ol] |  | 
100 to 1000 | < 100 | Cc1noc(C)c1-c1cc(F)c2nc(N(C)C)n3c2c1OCC3c1cccnc1 (centres unmarked) [Example 156, 7-(3,5-Dimethylisoxazol-4-yl)-9-fluoro-N,N-dimethyl-4-pyridin-3-yl-4,5-dihydroimidazo[1,5,4-de][1,4]benzoxazin-2-amine] |  | 
